# Patent US20220040316A1, “TRIPLE COMBINATION THERAPIES FOR TARGETING MITOCHONDRIA AND KILLING CANCER STEM CELLS” (LUNELLA BIOTECH, INC., priority 2018, published 2022)
# Entries after “also recorded” stand apart in the source; their conditions may differ.
# Columns and labels:
# [1] = tested on: MCF7 cells; experiment: Metabolic flux analysis (Seahorse XFe96, OCR and ECAR); format: cell-based, human
# Procedure: Metabolic Flux Analysis: Real-time oxygen consumption rates (OCR) and extracellular acidification rates (ECAR) rates in MCF7 cells were determined using the Seahorse Extracellular Flux (XFe96) analyzer (Seahorse Bioscience, USA). Briefly, 1.5×10^4 cells per well were seeded into XFe96 well cell culture plates, and incubated overnight to allow cell attachment. Then, cells were treated with antibiotics for 72 h. Vehicle-alone control cells were processed in parallel. After 72 hours of incubation, cells were washed in pre-warmed XF assay media (or for OCR measurement, XF assay media supplemented with 10 mM glucose, 1 mM Pyruvate, 2 mM L-glutamine and adjusted at 7.4 pH). Cells were then maintained in 175 μL/well of XF assay media at 37° C., in a non-CO2 incubator for 1 hour. During the incubation time, we loaded 25 μL of 80 mM glucose, 9 μM oligomycin, and 1M 2-deoxyglucose (for ECAR measurement) or 10 μM oligomycin, 9 μM FCCP, 10 μM rotenone, 10 μM antimycin A (for OCR measurement), in XF assay media into the injection ports in the XFe96 sensor cartridge. Measurements were normalized by protein content (Bradford assay). Data sets were analyzed using XFe96 software and GraphPad Prism software, using one-way ANOVA and Student's t-test calculations. All experiments were performed in quintuplicate, three times independently.
# [2] = tested on: U937 cells; settings: U937 cells incubated 15 minutes in media containing 3 μM Vitamin C; cited from earlier work
# [3] = tested on: rat heart; settings: Vitamin C alone, hypoxia, previous studies; cited from earlier work
# [4] = oral administration; cited from earlier work
# [5] = tested on: MCF7 cells; experiment: Mammosphere formation assay (MFE, CSC propagation) in MCF7 cells; format: cell-based, human
# Procedure: The data represents mammosphere counts after exposure to a compound, as a percentage of a control. The compounds were tested at concentrations of 1.5 μM, 3 μM, 6 μM, and 12 μM.
# Mammosphere Formation Assay: A single cell suspension was prepared using enzymatic (1× Trypsin-EDTA, Sigma Aldrich, #T3924), and manual disaggregation (25 gauge needle). Cells were plated at a density of 500 cells/cm2 in mammosphere medium (DMEM-F12+B27+20 ng/ml EGF+PenStrep) under non-adherent conditions, in culture dishes pre-coated with (2-hydroxyethylmethacrylate) (poly-HEMA, Sigma, #P3932), called “tumor-sphere plates”. Vehicle alone (DMSO) control cells were processed in parallel. Cells were grown for 5 days and maintained in a humidified incubator at 37° C. After 5 days of culture, 3D mammospheres >50 μm were counted using an eye piece (“graticule”), and the percentage of cells plated which formed spheres was calculated and is referred to as percent mammosphere formation (MFE, and was normalized to one (1=100% MSF).
# [6] = tested on: senescent fibroblasts; settings: azithromycin by itself; cited from earlier work
# [7] = tested on: CSCs; experiment: Inhibition of CSC propagation / CSC inhibition activity (assay not specified); format: cell-based
# [8] = tested on: MCF7 cells; experiment: Cellular retention by green auto-fluorescence; format: cell-based, human; settings: 10 μM, 72 hours, washed with PBS
# Procedure: FIGS. 16A-16C are images comparing the cellular retention of the doxycycline-myristate conjugate, to unconjugated doxycycline. MCF7 cells were cultured in tissue culture media in the presence of either therapeutic agent (i.e., the doxycycline-myristate conjugate or unconjugated doxycycline), at a concentration of 10 μM, for 72 hours. Then, the cells were washed with PBS and any therapeutic agent retained within the cells was visualized by green auto-fluorescence, from the excitation of the tetracycline ring structure. Control cells were incubated with vehicle-alone. […] The original color in the images has been inverted, to […], and the darker regions of FIG. 16B indicate increased cellular retention of the conjugated therapeutic agent.
# [9] = tested on: MCF7 cells; experiment: Cell viability, bulk MCF7 cells; format: cell-based, human; settings: range of concentrations up to 20 μM
# Text: (§1) Embodiments of therapeutic agents conjugated with targeting signals have shown less toxicity in bulk cancer cells and normal fibroblasts compared to unconjugated therapeutic agents. For example, FIGS. 17A and 17B show cell viability data for doxycycline and the doxycycline-myristate conjugate shown as compound [1], for bulk MCF7 cells and bulk BJ cells, respectively. The data represents cell viability expressed as a percentage of a control. […] Similar behavior has been seen in other therapeutic agents conjugated with targeting signals.
# [10] = tested on: BJ cells; experiment: Cell viability, bulk BJ cells; format: cell-based; settings: range of concentrations up to 20 μM
# Text: as §1
# [11] = tested on: breast cancer tumor samples; experiment: ABC trial pilot study: CSC markers in tumor samples after oral doxycycline; format: in vivo, human
# Procedure: Doxycycline impacts cancer growth through inhibition of CSC propagation with an IC-50 between 2-to-10 μM. The Antibiotic for Breast Cancer (ABC) trial was conducted at The University of Pisa Hospital. The ABC trial aimed to assess the anti-proliferative and anti-CSC mechanistic actions of doxycycline in early breast cancer patients. […] A pilot study of the ABC trial confirmed that doxycycline treatment successfully decreases the expression of CSC markers in breast cancer tumor samples. […] This represents a 90% positive response rate.
# [12] = MCF7 monolayers pre-treated 3-days, doxycycline 1 μM, azithromycin 1 μM, Vitamin C 250 μM as applicable, vs control
# [13] = breast cancer patients treated with doxycycline
structure (smiles),measurement,setting,value
"O=C1O[C@H]([C@@H](O)CO)C(O)=C1O [Vit C, Ascorbic Acid]",ATP production / ATP levels,[1]; [12],significantly increased
same,basal respiration,[1]; [12],significantly increased
same,glycolysis (ECAR),[1]; [12],significantly increased
same,glycolytic reserve,[1]; [12],significantly increased
same,glycolytic reserve capacity,[1]; [12],decreasing
same,maximal respiration,[1]; [12],significantly increased
same,oxidative mitochondrial metabolism (OCR),[1]; [12],significantly increased; also recorded: increases
same,increase of mitochondrial ATP production,"[1]; Vitamin C alone, MCF7 cells",up to 2 fold
same,Vitamin C level reached in mitochondria,[2],5 mM
same,increase of mitochondrial ATP production,[3],up to 1.5 fold
same,peak Vitamin C concentration in blood/serum/plasma,[4],about 250
CC[C@H]1OC(=O)[C@H](C)[C@@H](O[C@H]2C[C@@](C)(OC)[C@@H](O)[C@H](C)O2)[C@H](C)[C@@H](O[C@@H]2O[C@H](C)C[C@H](N(C)C)[C@H]2O)[C@](C)(O)C[C@@H](C)CN(C)[C@H](C)[C@@H](O)[C@]1(C)O [azithromycin],inhibition of mammosphere formation,[5]; drug alone at low concentrations (0.1 μM and 1 μM),little or no effect
same,efficiency of senolytic activity (removal of senescent fibroblasts),[6],~97%
CCCCCCCCCCCCCC(=O)N(C)[C@H]1C[C@@H](C)O[C@@H](O[C@@H]2[C@@H](C)[C@H](O[C@H]3C[C@@](C)(OC)[C@@H](O)[C@H](C)O3)[C@@H](C)C(=O)O[C@H](CC)[C@@](C)(O)[C@H](O)[C@@H](C)N(C)C[C@H](C)C[C@@]2(C)O)[C@@H]1O [compound [15]],potency and selectivity for CSCs compared to azithromycin alone,[7],improved potency and selectivity
"CCCCCCCCCCCCCC(=O)Nc1ccc2c(c1O)C(=O)C1=C(O)[C@]3(O)C(=O)C(C(N)=O)=C(O)[C@@H](N(C)C)C3[C@@H](O)C1[C@H]2C (stereo partly drawn) [doxycycline-myristate conjugate, (4S,5S,6R,12aS)-4-(dimethylamino)-3,5,10,12,12a-pentahydroxy-6-methyl-1,11-dioxo-9-(tetradecanoylamino)-4a,5,5a,6-tetrahydro-4H-tetracene-2-carboxamide]",potency in mammosphere assay compared with unconjugated doxycycline,"[5]; MCF7, 1.5 μM, 3 μM, 6 μM and 12 μM, mammosphere counts as percentage of control",more potent
same,times more potent than doxycycline for inhibiting CSC propagation,"[5]; from IC50 values, MCF7 mammosphere assay",over 5 times
same,CSC inhibition activity compared with the unconjugated antibiotic,[7]; fatty acid conjugates (myristate where stated),better CSC inhibitory properties
same,cellular retention compared to doxycycline alone,[8],significantly improved cellular retention
same,toxicity (cell viability as percentage of control) compared with doxycycline,[9],less toxic
same,toxicity (cell viability as percentage of control) compared with doxycycline,[10],less toxic
C[C@H]1c2cccc(O)c2C(=O)C2=C(O)[C@]3(O)C(=O)C(C(N)=O)=C(O)[C@@H](N(C)C)[C@@H]3[C@@H](O)[C@@H]21 [doxycycline],positive response rate (CD44),[11]; [13],90%
same,"rise in CD44, one patient",[11]; [13],15%
same,"decrease in the stemness marker CD44, post-doxycycline vs pre-doxycycline tumor samples","[11]; early breast cancer patients, short-term pre-operative oral doxycycline",40%
